Measurements: ChEMBL document CHEMBL4020826 (J Med Chem, 2018)

Tests used:
[1] = Plasma concentration in Sprague-Dawley rat at 0.1 mg/kg, sc administered as single dose measured after 1 hr post dose by LC-MS/MS analysis; format: ADME, organism-based
[2] = Plasma concentration in Sprague-Dawley rat at 10 mg/kg, sc administered as single dose measured after 1 hr post dose by LC-MS/MS analysis; format: ADME, organism-based
[3] = Plasma concentration in Sprague-Dawley rat at 3 mg/kg, sc administered as single dose measured after 1 hr post dose by LC-MS/MS analysis; format: ADME, organism-based
[4] = molecular target: T1, Metabotropic glutamate receptor 1 (Homo sapiens, UniProt Q13255); test: Agonist activity at recombinant human mGlu1 receptor expressed in hamster AV12 cells co-expressing rat EAAT1/Galpha15 assessed as induction of increase in Ca2+ flux after 2.5 mins by Fluo-3 AM dye-based FLIPR assay; format: functional, cell-based
T1 sequence (Q13255 whole entry): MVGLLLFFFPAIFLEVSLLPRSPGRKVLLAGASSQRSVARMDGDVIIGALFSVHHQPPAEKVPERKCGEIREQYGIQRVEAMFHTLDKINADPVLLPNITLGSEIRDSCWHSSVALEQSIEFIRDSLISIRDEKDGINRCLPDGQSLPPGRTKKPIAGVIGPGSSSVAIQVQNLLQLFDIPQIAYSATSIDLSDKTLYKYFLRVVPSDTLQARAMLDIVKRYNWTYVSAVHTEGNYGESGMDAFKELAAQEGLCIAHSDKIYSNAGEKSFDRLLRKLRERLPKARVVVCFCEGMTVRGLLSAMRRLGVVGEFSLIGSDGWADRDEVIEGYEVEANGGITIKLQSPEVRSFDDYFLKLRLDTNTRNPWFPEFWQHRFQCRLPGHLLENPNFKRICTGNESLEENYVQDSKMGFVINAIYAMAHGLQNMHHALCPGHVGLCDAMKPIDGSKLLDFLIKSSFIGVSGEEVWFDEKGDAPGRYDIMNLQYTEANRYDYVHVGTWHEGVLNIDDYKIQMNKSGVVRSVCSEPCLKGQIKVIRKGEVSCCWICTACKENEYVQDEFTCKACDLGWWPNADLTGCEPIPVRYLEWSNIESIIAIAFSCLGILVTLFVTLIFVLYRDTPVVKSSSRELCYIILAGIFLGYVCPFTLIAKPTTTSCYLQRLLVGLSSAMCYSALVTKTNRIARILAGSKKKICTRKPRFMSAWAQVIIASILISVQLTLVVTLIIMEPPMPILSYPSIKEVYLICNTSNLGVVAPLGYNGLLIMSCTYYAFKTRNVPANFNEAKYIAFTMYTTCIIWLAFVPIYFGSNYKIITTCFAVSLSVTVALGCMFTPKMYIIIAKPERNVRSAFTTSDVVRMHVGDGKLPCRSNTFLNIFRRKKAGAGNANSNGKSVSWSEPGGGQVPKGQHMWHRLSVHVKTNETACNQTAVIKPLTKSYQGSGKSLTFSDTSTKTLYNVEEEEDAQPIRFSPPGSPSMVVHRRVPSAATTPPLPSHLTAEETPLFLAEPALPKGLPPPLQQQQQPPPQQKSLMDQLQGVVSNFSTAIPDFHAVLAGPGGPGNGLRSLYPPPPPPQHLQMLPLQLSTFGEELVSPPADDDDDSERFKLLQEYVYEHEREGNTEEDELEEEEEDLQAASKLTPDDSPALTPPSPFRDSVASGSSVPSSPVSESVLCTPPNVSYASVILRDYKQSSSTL

[5] = molecular target: T1, Metabotropic glutamate receptor 1; test: Antagonist activity at recombinant human mGlu1 receptor expressed in hamster AV12 cells co-expressing rat EAAT1/Galpha15 assessed as inhibition of glutamate induced increase in Ca2+ flux after 2.5 mins by Fluo-3 AM dye-based FLIPR assay; format: functional, cell-based
Rattus norvegicus [6] = species: Rattus norvegicus; test: Drug metabolism in Sprague-Dawley rat assessed as (1S,2S,4S,5R,6S)-2-Amino-4-[(3-hydroxybenzoyl)amino]-bicyclo[3.1.0]hexane-2,6-dicarboxylic Acid formation measured over 24 hrs; format: ADME
[7] = molecular target: T2, Metabotropic glutamate receptor 4 (Homo sapiens, UniProt Q14833); test: Agonist activity at recombinant human mGlu4 receptor expressed in hamster AV12 cells co-expressing rat EAAT1/Galpha15 assessed as induction of increase in Ca2+ flux after 2.5 mins by Fluo-3 AM dye-based FLIPR assay; format: functional, cell-based
T2 sequence (Q14833 whole entry): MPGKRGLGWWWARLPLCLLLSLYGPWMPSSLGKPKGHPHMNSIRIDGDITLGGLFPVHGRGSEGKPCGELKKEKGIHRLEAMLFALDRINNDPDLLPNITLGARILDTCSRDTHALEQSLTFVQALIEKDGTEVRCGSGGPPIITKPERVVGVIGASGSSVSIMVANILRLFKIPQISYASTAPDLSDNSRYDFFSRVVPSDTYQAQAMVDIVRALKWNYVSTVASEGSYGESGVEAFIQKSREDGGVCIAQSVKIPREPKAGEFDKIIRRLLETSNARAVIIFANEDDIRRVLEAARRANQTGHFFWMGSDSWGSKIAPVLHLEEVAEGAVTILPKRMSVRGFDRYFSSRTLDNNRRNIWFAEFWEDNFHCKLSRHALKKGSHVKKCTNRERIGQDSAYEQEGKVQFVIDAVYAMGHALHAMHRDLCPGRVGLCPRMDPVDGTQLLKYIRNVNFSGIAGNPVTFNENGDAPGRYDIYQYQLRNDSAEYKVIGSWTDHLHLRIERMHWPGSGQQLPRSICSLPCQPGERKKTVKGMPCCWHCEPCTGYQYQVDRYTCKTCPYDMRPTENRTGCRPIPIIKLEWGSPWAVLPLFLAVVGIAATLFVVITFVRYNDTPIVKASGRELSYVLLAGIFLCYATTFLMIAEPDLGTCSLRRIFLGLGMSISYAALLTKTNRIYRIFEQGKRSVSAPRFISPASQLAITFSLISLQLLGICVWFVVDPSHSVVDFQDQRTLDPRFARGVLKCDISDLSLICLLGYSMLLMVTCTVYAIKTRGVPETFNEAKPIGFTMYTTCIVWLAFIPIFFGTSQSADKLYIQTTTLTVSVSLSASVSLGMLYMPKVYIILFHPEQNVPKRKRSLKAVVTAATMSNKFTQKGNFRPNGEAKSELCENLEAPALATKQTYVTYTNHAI

[8] = molecular target: T2, Metabotropic glutamate receptor 4; test: Antagonist activity at recombinant human mGlu4 receptor expressed in hamster AV12 cells co-expressing rat EAAT1/Galpha15 assessed as inhibition of glutamate induced increase in Ca2+ flux after 2.5 mins by Fluo-3 AM dye-based FLIPR assay; format: functional, cell-based
[9] = molecular target: Metabotropic glutamate receptor 6 (Homo sapiens, UniProt O15303); test: Agonist activity at human mGlu6 receptor expressed in hamster AV12 cells co-expressing rat EAAT1 assessed as inhibition of forskolin-stimulated cAMP formation after 20 mins by HTRF assay; format: functional, cell-based
[10] = molecular target: Metabotropic glutamate receptor 7 (Homo sapiens, UniProt Q14831); test: Antagonist activity at recombinant human mGlu7 receptor expressed in hamster AV12 cells co-expressing rat EAAT1/Galpha15 assessed as inhibition of glutamate induced increase in Ca2+ flux after 2.5 mins by Fluo-3 AM dye-based FLIPR assay; format: functional, cell-based
[11] = molecular target: Voltage-gated inwardly rectifying potassium channel KCNH2 (Homo sapiens, UniProt Q12809); test: Displacement of [3H]-dofetilide from human ERG
Sequence of Voltage-gated inwardly rectifying potassium channel KCNH2 (Q12809 whole entry): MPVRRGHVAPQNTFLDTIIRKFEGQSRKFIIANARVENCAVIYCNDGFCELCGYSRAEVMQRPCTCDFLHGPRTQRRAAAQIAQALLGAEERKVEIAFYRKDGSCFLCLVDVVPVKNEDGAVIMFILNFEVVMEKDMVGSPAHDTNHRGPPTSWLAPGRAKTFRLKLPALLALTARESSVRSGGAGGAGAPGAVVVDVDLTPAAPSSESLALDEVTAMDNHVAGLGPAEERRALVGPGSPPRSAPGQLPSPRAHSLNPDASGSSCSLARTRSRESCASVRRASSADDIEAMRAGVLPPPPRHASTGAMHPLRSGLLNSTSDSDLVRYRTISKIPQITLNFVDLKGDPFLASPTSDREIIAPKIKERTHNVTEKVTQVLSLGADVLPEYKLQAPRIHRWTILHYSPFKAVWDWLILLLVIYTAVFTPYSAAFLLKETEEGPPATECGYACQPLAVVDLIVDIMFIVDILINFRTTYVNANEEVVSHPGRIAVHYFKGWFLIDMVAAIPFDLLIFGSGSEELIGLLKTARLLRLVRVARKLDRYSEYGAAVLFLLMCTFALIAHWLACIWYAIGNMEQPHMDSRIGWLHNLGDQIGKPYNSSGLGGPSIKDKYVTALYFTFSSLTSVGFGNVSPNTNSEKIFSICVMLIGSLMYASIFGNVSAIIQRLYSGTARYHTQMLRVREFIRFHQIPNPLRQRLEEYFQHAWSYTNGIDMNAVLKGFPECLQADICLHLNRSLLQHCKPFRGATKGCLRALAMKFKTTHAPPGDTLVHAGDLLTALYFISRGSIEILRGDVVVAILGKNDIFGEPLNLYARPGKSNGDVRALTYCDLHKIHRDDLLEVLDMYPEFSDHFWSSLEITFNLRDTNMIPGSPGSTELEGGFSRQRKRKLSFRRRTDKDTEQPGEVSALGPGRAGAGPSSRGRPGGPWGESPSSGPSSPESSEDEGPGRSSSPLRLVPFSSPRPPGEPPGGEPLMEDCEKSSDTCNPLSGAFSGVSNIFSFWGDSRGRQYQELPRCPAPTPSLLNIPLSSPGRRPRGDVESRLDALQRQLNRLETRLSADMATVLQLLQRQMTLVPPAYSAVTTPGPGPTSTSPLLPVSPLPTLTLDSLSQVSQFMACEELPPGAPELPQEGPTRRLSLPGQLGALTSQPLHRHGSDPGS

[12] = Drug metabolism in rat liver microsomes at 4 uM; format: ADME, microsome; conditions: read-out: Drug metabolism
CYP3A4 = CYP3A4 (Homo sapiens, UniProt P08684); test: Inhibition of human CYP3A4 at 10 uM; format: ADME
Sequence of CYP3A4 (P08684 whole entry): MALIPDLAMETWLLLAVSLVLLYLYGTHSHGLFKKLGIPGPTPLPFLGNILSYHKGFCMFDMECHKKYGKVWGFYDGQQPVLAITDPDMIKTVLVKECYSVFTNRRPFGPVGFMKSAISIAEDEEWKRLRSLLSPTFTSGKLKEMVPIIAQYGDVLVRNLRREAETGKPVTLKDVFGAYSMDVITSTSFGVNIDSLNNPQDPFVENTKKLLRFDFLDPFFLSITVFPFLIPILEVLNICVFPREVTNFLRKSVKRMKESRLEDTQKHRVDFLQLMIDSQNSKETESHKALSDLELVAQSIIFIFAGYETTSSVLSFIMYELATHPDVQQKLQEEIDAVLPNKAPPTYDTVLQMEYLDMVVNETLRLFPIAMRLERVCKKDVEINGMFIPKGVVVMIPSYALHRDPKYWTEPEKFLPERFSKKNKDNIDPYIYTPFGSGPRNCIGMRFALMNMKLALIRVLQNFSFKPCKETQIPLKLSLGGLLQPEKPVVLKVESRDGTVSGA

CYP2D6 = CYP2D6 (Homo sapiens, UniProt P10635); test: Inhibition of human CYP2D6 at 10 uM; format: ADME
Sequence of CYP2D6 (P10635 whole entry): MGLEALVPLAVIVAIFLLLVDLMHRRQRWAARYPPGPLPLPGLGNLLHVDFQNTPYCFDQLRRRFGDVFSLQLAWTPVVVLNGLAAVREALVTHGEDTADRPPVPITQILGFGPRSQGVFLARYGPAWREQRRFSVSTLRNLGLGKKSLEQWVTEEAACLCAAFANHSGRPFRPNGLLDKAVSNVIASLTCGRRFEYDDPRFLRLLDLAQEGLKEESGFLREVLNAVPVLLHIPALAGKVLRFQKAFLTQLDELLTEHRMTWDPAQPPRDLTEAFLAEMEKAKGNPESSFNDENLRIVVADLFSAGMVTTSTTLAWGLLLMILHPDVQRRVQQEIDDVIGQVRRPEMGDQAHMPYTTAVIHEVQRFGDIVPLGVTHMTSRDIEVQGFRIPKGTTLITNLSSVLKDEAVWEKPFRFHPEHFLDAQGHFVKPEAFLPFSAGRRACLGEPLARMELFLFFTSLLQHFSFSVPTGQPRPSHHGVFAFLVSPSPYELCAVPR

[13] = Cmax in Sprague-Dawley rat at 1 mg/kg, iv measured over 8 hrs by LC-MS/MS analysis; format: ADME, organism-based; design: dose 1 mg/kg, route intravenous; conditions: in vivo
[14] = Clearance in Sprague-Dawley rat at 1 mg/kg, iv measured over 8 hrs by LC-MS/MS analysis; format: ADME, organism-based; conditions: in vivo
[15] = Volume of distribution at steady state in Sprague-Dawley rat at 1 mg/kg, iv measured over 8 hrs by LC-MS/MS analysis; format: ADME, organism-based; conditions: in vivo, read-out: Vdss
[16] = Cmax in Sprague-Dawley rat at 3 mg/kg, sc measured over 8 hrs by LC-MS/MS analysis; format: ADME, organism-based; design: dose 3 mg/kg, route subcutaneous; conditions: in vivo
[17] = AUC in Sprague-Dawley rat at 3 mg/kg, sc measured over 8 hrs by LC-MS/MS analysis; format: ADME, organism-based; design: dose 3 mg/kg, time < 8 hr, route subcutaneous; conditions: in vivo
[18] = Tmax in Sprague-Dawley rat at 3 mg/kg, sc measured over 8 hrs by LC-MS/MS analysis; format: ADME, organism-based; conditions: in vivo
[19] = Bioavailability in Sprague-Dawley rat at 3 mg/kg, sc measured over 8 hrs by LC-MS/MS analysis; format: ADME, organism-based; conditions: in vivo
[20] = Drug level in Sprague-Dawley rat CSF at 1 mg/kg, sc administered as single dose measured after 1 hr post dose by LC-MS/MS analysis; format: ADME, organism-based, Cerebrospinal fluid; conditions: read-out: Drug uptake
[21] = Plasma concentration in Sprague-Dawley rat at 1.5 mg/kg/day, sc administered via infusion measured after 6 hrs post dose by LC-MS/MS analysis; format: ADME, organism-based
[22] = Plasma concentration in Sprague-Dawley rat at 15 mg/kg/day, sc administered via infusion measured after 12 hrs post dose by LC-MS/MS analysis; format: ADME, organism-based
[23] = Plasma concentration in Sprague-Dawley rat at 0.5 mg/kg/day, sc administered via infusion measured after 24 hrs post dose by LC-MS/MS analysis; format: ADME, organism-based
[24] = Plasma concentration in Sprague-Dawley rat at 1.5 mg/kg/day, sc administered via infusion measured after 24 hrs post dose by LC-MS/MS analysis; format: ADME, organism-based
[25] = Plasma concentration in Sprague-Dawley rat at 15 mg/kg/day, sc administered via infusion measured after 24 hrs post dose by LC-MS/MS analysis; format: ADME, organism-based
[26] = Plasma concentration in Sprague-Dawley rat at 0.5 mg/kg/day, sc administered via infusion measured after 48 hrs post dose by LC-MS/MS analysis; format: ADME, organism-based
[27] = Plasma concentration in Sprague-Dawley rat at 5 mg/kg/day, sc administered via infusion measured after 48 hrs post dose by LC-MS/MS analysis; format: ADME, organism-based
[28] = Plasma concentration in Sprague-Dawley rat at 15 mg/kg/day, sc administered via infusion measured after 48 hrs post dose by LC-MS/MS analysis; format: ADME, organism-based
[29] = Plasma concentration in Sprague-Dawley rat at 1.5 mg/kg/day, sc administered via infusion measured after 72 hrs post dose by LC-MS/MS analysis; format: ADME, organism-based
[30] = Plasma concentration in Sprague-Dawley rat at 15 mg/kg/day, sc administered via infusion measured after 72 hrs post dose by LC-MS/MS analysis; format: ADME, organism-based
[31] = Drug level in Sprague-Dawley rat CSF at 1.5 mg/kg/day, sc administered via infusion measured after 72 hrs post dose by LC-MS/MS analysis; format: ADME, organism-based, Cerebrospinal fluid; conditions: read-out: Drug uptake
[32] = Drug level in Sprague-Dawley rat CSF at 5 mg/kg/day, sc administered via infusion measured after 72 hrs post dose by LC-MS/MS analysis; format: ADME, organism-based, Cerebrospinal fluid; conditions: read-out: Drug uptake
[33] = Drug level in Sprague-Dawley rat CSF at 15 mg/kg/day, sc administered via infusion measured after 72 hrs post dose by LC-MS/MS analysis; format: ADME, organism-based, Cerebrospinal fluid; conditions: read-out: Drug uptake
Rattus norvegicus [34] = test: Toxicity in Sprague-Dawley rat assessed as reduction in spontaneous locomotive activity at 30 mg/kg, sc after 90 mins; format: organism-based; design: scale not given: the % may be the effect or the level left; conditions: in vivo, 1.5 h

## COc1cccc(C(=O)N[C@H]2C[C@@](N)(C(=O)O)[C@@H]3[C@@H](C(=O)O)[C@@H]32)c1
[1]
  concentration at 1 h: 286 nM
[2]
  concentration at 1 h: 25900 nM
[3]
  concentration at 1 h: 7180 nM
[4]
  EC50: > 25 µM
[5]
  IC50: > 12.5 µM
Rattus norvegicus [6]
  Drug metabolism: < 2.5 nM
[7]
  EC50: 11.8 µM
[8]
  IC50: > 12.5 µM
[9]
  EC50: 1.95 µM
[10]
  IC50: > 12.5 µM
[11]
  inhibition (INH): Not Active
[12]
  metabolised at 4 µM: 23%
CYP3A4
  inhibition at 10 µM: 3.6%
CYP2D6
  inhibition at 10 µM: 0%
[13]
  Cmax: 6390 nM
[14]
  clearance: 18.3 mL/min/kg
[15]
  Vd: 1.17 L/kg
[16]
  Cmax: 6780 nM
[17]
  AUC at 8 h: 9.88 µM·h
[18]
  Tmax: 26.4 min
[19]
  bioavailability: 121%
[20]
  concentration at 1 h: 12.5 to 22.5 nM
[21]
  concentration at 6 h: 427 nM
[22]
  concentration at 12 h: 3070 nM
[23]
  concentration at 24 h: 124 nM
[24]
  concentration at 24 h: 403 nM
[25]
  concentration at 24 h: 3170 nM
[26]
  concentration at 48 h: 95.1 nM
[27]
  concentration at 48 h: 871 nM
[28]
  concentration at 48 h: 2130 nM
[29]
  concentration at 72 h: 361 nM
[30]
  concentration at 72 h: 3210 nM
[31]
  concentration at 72 h: 7.5 nM
[32]
  concentration at 72 h: 25.2 nM
[33]
  concentration at 72 h: 86.7 nM
Rattus norvegicus [34]
  Activity: 36%
